Experimental data taken from PubChem BioAssay (NCI).
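Five concentrations, 48 hours, 96-well plates. At the GI50, growth is halved. TGI marks complete inhibition of growth.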 Peptide text beside a SMILES is read from it. * marks the point of attachment. OSu = O=C1CCC(=O)N1O*; OBn = c1ccc(CO*)cc1; Bn = c1ccc(C*)cc1

Assays:
Assay in all cases: growth of human tumour cells (NCI), 48 h
HCT-15 colon = tested on: HCT-15 colon
NCI-H23 lung = tested on: NCI-H23 lung
COLO 205 colon = tested on: COLO 205 colon
DU-145 prostate = tested on: DU-145 prostate
SF-539 CNS = tested on: SF-539 CNS
HOP-92 NSCLC = tested on: HOP-92 NSCLC
UACC-257 melanoma = tested on: UACC-257 melanoma
IGROV1 ovarian = tested on: IGROV1 ovarian
A549 NSCLC = tested on: A549 NSCLC
SW-620 colon = tested on: SW-620 colon

SMILES	TGI (HCT-15 colon) [µM]	TGI (NCI-H23 lung) [µM]	TGI (COLO 205 colon) [µM]	TGI (DU-145 prostate) [µM]	TGI (SF-539 CNS) [µM]	TGI (HOP-92 NSCLC) [µM]	TGI (UACC-257 melanoma) [µM]	TGI (IGROV1 ovarian) [µM]	TGI (A549 NSCLC) [µM]	TGI (SW-620 colon) [µM]	GI50 (SW-620 colon) [µM]	GI50 (DU-145 prostate) [µM]	GI50 (UACC-257 melanoma) [µM]	GI50 (A549 NSCLC) [µM]
O=[N+]([O-])c1ccc(-[n+]2ccc3ccccc3c2)c([N+](=O)[O-])c1	3.65	6.03	6.29	27.8	12	5.29	4.08	8.61	34.1					
NC(CNc1ccc(O)cc1)C(=O)O (stereo unspecified)	> 100		> 100			> 100	> 100		> 100	> 100				
Cc1csc2n(C)c(=O)c3ccccc3[n+]12	> 100	> 100	> 100	> 100	> 100		> 100	> 100	> 100	> 100				
CCOC(=O)/C=C1/Nc2cc(F)c(F)cc2NC1=O	> 100	> 100	> 100	> 100	> 100	> 100	> 100		> 100	> 100				
Cc1oc2c(C)c3oc(=O)cc(C)c3cc2c1CN	> 100	> 100	> 100		> 100		> 100		> 100	> 100				
CC1=CC(=O)/C(=C/N2CCNC2=S)C(=O)O1	> 100	> 100	> 100	> 100	> 100	> 100	> 100	> 100	> 100	> 100				
CCCCNCC(O)c1cc(-c2ccc(C(F)(F)F)cc2)nc(-c2ccc(C(F)(F)F)cc2)c1 (stereo unspecified)				3.65			3.57		3.36	2.96	1.26	2.02	1.83	1.64
CCOC(=O)CCC(NC(=O)c1ccc(NCc2ccc3nc(-c4ccccc4)c(Cl)nc3c2)c2ccccc12)C(=O)OCC (stereo unspecified)	> 100	> 100	> 100	> 100	> 100	> 100	61.5		> 100	> 100				
C=C1[C@H](OCC(C)C)[C@@H](OC(=O)C(C)CC)[C@@H](O)C(C)(C)/C=C/[C@H](C)C(=O)[C@@]2(O)C[C@H](C)[C@H](O)[C@@H]2[C@H]1OC(=O)C(C)CC (stereo partly specified)	> 20	> 15.8	> 9.67	> 20	> 14.9	> 20	> 14.1	> 20	> 20	> 20				
OCCNc1nc2c(N3CCCC3)nc(N3CCNCC3)nc2nc1NCc1ccccc1	32.2	34.2	24.9	24.2	32	21.8	33.5	25.5	31.4	42.4				
O=C(NC(CO)CO)c1ccc2cc(C(=O)N3CC(CCl)c4ccc([N+](=O)[O-])cc43)[nH]c2c1 (stereo unspecified)	> 100	> 100	> 100	> 100	> 100	> 100	> 100	> 100	> 100	> 100				
OC1(c2ccc(Cl)cc2)c2ccccc2C2=NCc3ccccc3CN21 (stereo unspecified)	20	23.7	19	34.7	24.4	41.4	28.3	9.63	19.2	15.8				
CC(C)CC(NC(=O)C(N)CCC(=O)OCc1ccccc1)C(=O)NC(COCc1ccccc1)C(=O)NC(Cc1ccccc1)C(=O)ON1C(=O)CCC1=O (stereo unspecified) (H-E(OBn)LS(Bn)F-OSu; configuration not given here)		54.3		> 100		39.8	66.1	72.6	> 100	> 100				
CCc1cc2c(oc3c4ccccc4ccc23)c(=O)[nH]1		> 10		> 10	> 10	> 10	> 10	> 10	> 10	> 10				
CC(CC(C)(C)[N+](C)(C)C)[N+](C)(C)C (stereo unspecified)	> 100	> 100	> 100	> 100	> 100	> 100	> 100	> 100	> 100	> 100				
C/C(=N\n1c(Cc2ccccc2)n[nH]c1=O)c1ccc([N+](=O)[O-])cc1	> 100	> 100	> 100	> 100		> 100	> 100	> 100	> 100	> 100				
O=C(CCC(=O)OCC1OC(O)(CC2OC(CO)C(O)C(O)C2O)C(O)C1O)OCc1ccccc1 (stereo unspecified)	> 100	> 100	> 100	> 100	> 100	> 100	> 100	> 100	> 100	> 100				
CC(C)(C)OC(=O)NCCNC(=O)CN(CC(=O)O)C1CCCCC1N(CC(=O)O)CC(=O)O (stereo unspecified)	> 100	> 100	> 100	> 100	> 100	> 100	> 100	> 100	> 100	> 100				
CC(=O)C(C(=O)C(C)(C)C)C(=O)C(C)(C)C	> 100		> 100	> 100	> 100	> 100	> 100		> 100	> 100				
COc1cc(C2C3=C(N=C4SC(C(C)=O)=C(C)N42)c2ccccc2CC3)cc(OC)c1OC (stereo unspecified)		> 100	> 100	> 100	> 100	> 100	> 100	> 100	> 100	> 100				
Cc1ccc(C2(c3ccc(C)c(O)c3C)CCN(C)CC2)c(C)c1O	> 100	> 100		> 100		> 100	35.3	> 100	> 100	> 100				
CC12CCC(C1)C(C)(C)C2OC(=O)c1ccccc1C(=O)O (stereo unspecified)	> 100	> 100	> 100	> 100		> 100	> 100	> 100	> 100	> 100				
C1=C[C@]2(CCC13OCCO3)COc1ccccc12	> 100	99.5	> 100	> 100		> 100	> 100		> 100	> 100				

SMILES	TGI (HCT-15 colon) [µM]	TGI (NCI-H23 lung) [µM]	TGI (COLO 205 colon) [µM]	TGI (DU-145 prostate) [µM]	TGI (SF-539 CNS) [µM]	TGI (HOP-92 NSCLC) [µM]	TGI (UACC-257 melanoma) [µM]	TGI (IGROV1 ovarian) [µM]	TGI (A549 NSCLC) [µM]	TGI (SW-620 colon) [µM]	GI50 (SW-620 colon) [µM]	GI50 (DU-145 prostate) [µM]	GI50 (UACC-257 melanoma) [µM]	GI50 (A549 NSCLC) [µM]
O=[N+]([O-])c1ccc(Cl)cc1N/N=C/c1cccs1	> 100	> 100	> 100	> 100	> 100		> 100	> 100	> 100	> 100				
Clc1ccc(-c2nn3c(C45CC6CC(CC(C6)C4)C5)nnc3s2)cc1	> 100	> 100	> 100	> 100	> 100	> 100		> 100	> 100	> 100				
COC1=C(OC)C(=O)C(Cc2c(Cl)nc3n2CCS3)=C(C)C1=O	39.8	47.5	31.5	40	28.1		22.2	30.5	40.6	33.8				
N#CI1OC(C(F)(F)F)(C(F)(F)F)c2ccccc21	32.6	36	26.8	38.4	36.9	42.5	51.8	31.8	> 100					
C/C(=N\NC(=O)N/N=C(\C)c1ccccn1)c1ccccn1	> 100		> 100	> 100	3.04	> 100	> 100	> 100	> 100	> 100				
c1ccc2nn(C3CCCCO3)nc2c1 (stereo unspecified)	> 100	> 100	> 100	> 100	> 100		> 100	> 100	> 100					
CC(C)(C)c1cc(C2NC(=O)NC2=O)cc(C(C)(C)C)c1O (stereo unspecified)	> 100	> 100	> 100	> 100	> 100	> 100		> 100	> 100	> 100				
CCCN(CCC)c1c([N+](=O)[O-])cc(C(=O)N(C)C)cc1[N+](=O)[O-]	> 100	> 100	> 100		> 100		> 100	> 100	> 100					
COC(=O)C(N)CCCC(N)C(=O)NC(C)C(=O)NC(CCC(=O)NCCCNc1ccc([N+](=O)[O-])c2[nH]c3ccccc3c(=O)c12)C(N)=O (stereo unspecified)	15	17.9	15.2	19.1		26.1	23.2		12.3	14.7				
c1csc(-c2nnc(C34CC5CC(CC(C5)C3)C4)o2)c1	> 100	> 100	31.2	> 100	40.1	54.8		> 100	> 100	> 100				
c1cn[nH]c1	> 10	> 10	> 10		> 10	> 10		> 10	> 10	> 10				
O=C(c1ccccc1)n1[nH]c(=O)n(-c2ccc(Cl)cc2)c1=O	> 100	> 100	> 100	> 100			> 100	> 100	> 100	> 100				
O=c1c(S(=O)(=O)Oc2ccccc2)coc2cc(F)ccc12	> 100	> 100			> 100		> 100	> 100	> 100	> 100				
Cc1ccsc1/C=N/Nc1ccccn1	> 100	> 100	> 100	> 100		> 100	> 100	> 100	> 100	> 100				
CC(CN(C)C)C(=O)/C=C/c1ccc(Cl)c(Cl)c1 (stereo unspecified)		5.11	2.58	> 100		3.48	5.61	3.73	13.8	8.42				
O=C1C(CN2CCCC2)CCCC1CN1CCCC1 (stereo unspecified)	4.54	4.27	3.07	34.2	16.1		4.39	32.4	39.3	0.32				
O=c1cc2cc(O)[nH]c(=O)c2c(O)[nH]1	> 100	> 100	> 100		> 100	> 100	> 100	> 100	> 100	> 100				
Cn1c(=O)c2[nH]c(-n3nc(-c4ccccc4)cc3N)nc2n(C)c1=O	> 100		88.7	45	27.1	74.9		37.1	> 100					
Cc1ccc(Nc2ccc(Nc3ccc(C)cc3S(=O)(=O)O)c3c2C(=O)c2ccccc2C3=O)c(S(=O)(=O)O)c1	> 100		> 100		> 100		> 100	> 100	> 100	> 100				
CC(C)(Oc1ccc(C(=O)c2ccc(Cl)cc2)cc1Cl)C(=O)N1CCN(c2ccccc2)CC1	> 100	> 100			> 100	> 100	> 100	> 100	> 100	> 100				
C=C(COC(=O)C(C)C)[C@H]1Oc2ccc(C(C)=O)cc2[C@@H]1OC(=O)C(C)C	> 100	> 100	> 100	> 100	> 100		> 100	> 100	> 100	> 100				
Cc1[nH]c(=O)[nH]c(=O)c1C(=O)N(CCO)Cc1ccccc1	> 100	> 100	45.7	> 100	> 100	> 100	> 100	> 100		> 100				
CC(=O)OC1C(O)C(C)OC(OC(=O)C2CCC3C(C2)OC2(CC(OC(=O)/C=C/c4ccccc4)C(C)CO2)C32CO2)C1OC1OC(C)C(O)C(O)C1O (stereo unspecified)	39.2	0.22	0.0569		0.105	0.0396	0.0726	0.131	1.3	0.568				
